Results from ChEMBL document CHEMBL3785026, “Pharmacokinetics of erythromycin in patients with severe cirrhosis. Respective influence of decreased serum binding and impaired liver metabolic capacity” (Br J Clin Pharmacol, 1987).

How the values were obtained:
Homo sapiens [1] = experiment: Unbound renal drug clearance in healthy human subjects (6 subjects) at 500 mg, iv by Sarcina lutea based bioassay; assay type: ADME, organism-based, Kidney; conditions: in vivo
Homo sapiens [2] = experiment: Unbound non-renal drug clearance in healthy human subjects (6 subjects) at 500 mg, iv by Sarcina lutea based bioassay; assay type: ADME, organism-based; conditions: in vivo
[3] = Volume of distribution at steady state in patient with severe cirrhosis (5 patients) at 500 mg, iv by Sarcina lutea based bioassay; assay type: ADME, organism-based; conditions: human, in vivo, read-out: Vdss
Homo sapiens [4] = experiment: Unbound drug clearance in healthy human subjects (6 subjects) at 500 mg, iv by Sarcina lutea based bioassay; assay type: ADME, organism-based; conditions: in vivo
[5] = Unbound fraction in serum of healthy human subjects (6 subjects) at 500 mg, iv by Sarcina lutea based bioassay; assay type: ADME, organism-based
[6] = Total drug clearance in patient with severe cirrhosis (5 patients) at 500 mg, iv by Sarcina lutea based bioassay; assay type: ADME, organism-based; conditions: human, in vivo
Homo sapiens [7] = experiment: Unbound drug clearance in patient with severe cirrhosis (5 patients) at 500 mg, iv by Sarcina lutea based bioassay; assay type: ADME, organism-based; conditions: in vivo
[8] = Terminal half life in healthy human subjects (6 subjects) at 500 mg, iv by Sarcina lutea based bioassay; assay type: ADME, organism-based; conditions: in vivo, read-out: beta t1/2 (converted)
Homo sapiens [9] = experiment: Unbound renal drug clearance in patient with severe cirrhosis (5 patients) at 500 mg, iv by Sarcina lutea based bioassay; assay type: ADME, organism-based, Kidney; conditions: in vivo
[10] = Unbound fraction in serum of patient with severe cirrhosis (5 patients) at 500 mg, iv by Sarcina lutea based bioassay; assay type: ADME, organism-based; conditions: human
[11] = Total drug clearance in healthy human subjects (6 subjects) at 500 mg, iv by Sarcina lutea based bioassay; assay type: ADME, organism-based; conditions: in vivo
[12] = Volume of distribution at steady state in healthy human subjects (6 subjects) at 500 mg, iv by Sarcina lutea based bioassay; assay type: ADME, organism-based; conditions: in vivo, read-out: Vdss
Homo sapiens [13] = experiment: Unbound non-renal drug clearance in patient with severe cirrhosis (5 patients) at 500 mg, iv by Sarcina lutea based bioassay; assay type: ADME, organism-based; conditions: in vivo
[14] = Terminal half life in patient with severe cirrhosis (5 patients) at 500 mg, iv by Sarcina lutea based bioassay; assay type: ADME, organism-based; conditions: human, in vivo, read-out: beta t1/2 (converted)

CL free (Homo sapiens [1]): 14.5 L/h | CL free (Homo sapiens [2]): 98.6 L/h | Vd [3]: 85.5 L | CL free (Homo sapiens [4]): 113.2 L/h | fraction unbound [5]: 0.305 | clearance [6]: 403 mL/min | CL free (Homo sapiens [7]): 42.2 L/h | half-life [8]: 1.36 h | CL free (Homo sapiens [9]): 11.2 L/h | fraction unbound [10]: 0.583 | clearance [11]: 570 mL/min | Vd [12]: 57.6 L | CL free (Homo sapiens [13]): 31.6 L/h | half-life [14]: 2.24 h
Compound: CC[C@H]1OC(=O)[C@H](C)[C@@H](O[C@H]2C[C@@](C)(OC)[C@@H](O)[C@H](C)O2)[C@H](C)[C@@H](O[C@@H]2O[C@H](C)C[C@H](N(C)C)[C@H]2O)[C@](C)(O)C[C@@H](C)C(=O)[C@H](C)[C@@H](O)[C@]1(C)O.O=C(O)[C@H](O)[C@@H](O)[C@H](O[C@@H]1O[C@H](CO)[C@@H](O)[C@@H](O)[C@H]1O)[C@H](O)CO
